Experiments:
Format in all cases: cell-based, human
cyclin B2 RNA = test: RT-PCR of endogenous mutant p53 target in SKBR3; settings: SKBR3, under Adriamycin
Source text: (§1) Cellular RNA was isolated by Tri-Reagent (MRC Inc.; Cincinnati, Ohio, USA) using the manufacture's instructions, DNA was removed from the samples using DNase treatment (DNA-free kit, Ambion Applied Biosystems; Foster City, Calif., USA), cDNA was synthesized from the purified RNA using M-MLV Reveres Transcription kit (Promega, Madison, Wis., USA). Primers for ribosomal 18S were forward: […] (SEQ ID No: 6); and reverse: […] (SEQ ID No: 7). Primers for PML were forward: CGCCCTGGATAACGTCTTT (SEQ ID No: 8) and reverse: ACTGTGGCTGCTGTCAAGG (SEQ ID No: 9).
(§2) In addition, the effect of PML down-regulation on the transcription of the mutant p53 targets cyclin B2 and Cdc25C, in response to genotoxic stress, was examined in the endogenous mutant p53^175 background of SKBR3 cells. SKBR3 cells were transfected with either PML3i (SEQ ID No: 3) or shp53 (GACTCCAGTGGTAATCTA; SEQ ID No: 10), and luciferase reporter constructs for either Cyclin B2 or Cdc25c. After 24 hours, the cells were exposed to adriamycin (0.5 μg/ml). Down regulation of p53 suppressed the induction of both promoters (FIG. 6B(i) and (ii), respectively). […] The suppression of endogenous cyclin B2 and Cdc25C in response to either p53 or PML down-regulation, under the influence of Adriamycin, was also confirmed at the RNA level by RT-PCR (FIG. 6C).

Cdc25C RNA = test: RT-PCR of endogenous mutant p53 target in SKBR3; settings: SKBR3, under Adriamycin
Source text: as §1, §2

Cdc25C promoter = test: Luciferase reporter assay pCCAAT-cdc25CLUC in SKBR3; settings: SKBR3, adriamycin 0.5 μg/ml
Description: (§3) For LacZi-SKBR3 and PML3i-SKBR3, cells (1.5×10^5) were transiently transfected with expression plasmids, reporter constructs, and 0.51 μg of CMV β-galactosidase plasmid (pcDNA3-β-gal vector) as an internal control for transfection efficiency. Precipitates were removed and cells were treated with 0.5 μg/ml ADR for 48 hr. Luciferase activity was assayed on whole-cell extract, as described (Manni et al.). The luciferase values were normalized to β-galactosidase activity and protein content.
as §2

SKBR3 cells = test: Trypan blue dye exclusion after Adriamycin exposure; settings: SKBR3, Adriamycin 0.5 μg/mL 24 h
Description: Expression of certain p53 mutants confers cells with some resistance to genotoxic stress (Strano et al.). It was therefore important to define whether PML contributes to this biological effect of mutant p53. To this end PML expression was down regulated in SKBR3 cells and cells were exposed to 0.5 μg/ml Adriamycin for 24 h. The effect on cell survival was determined by Trypan blue dye exclusion. Down regulation of PML reduced the numbers of live cells (FIG. 6A(i)), whereas no significant increase in cell death was identified (FIG. 6A(ii)).

p53 null H1299 cells = test: Cell cycle analysis and flow cytometry
Description: (§4) To ascertain the influence of PML levels on the proliferation of HT29 human cancer cells, they were subjected initially to metabolic evaluation using an MTT assay and cell cycle analysis using BrdUrd incorporation. […] This reduction was consistent with the reduced growth rate, but cannot explain the marked difference in cell numbers. It is important to clarify that because the MTT assay involved plating cells of equal number 24 hours in advance of each assay time point, there was continual selection for live cells, which is likely to have masked the accrued effects detected with longer-term plating for the flow cytometric analysis and the colony assay. […] To further substantiate the mutant p53 dependence of cell cycle perturbation induced through PML knockdown, H1299 cells either without, or bearing mutant p53^175, were subjected to cell cycle analysis and flow cytometry (FIG. 10).

[1] = system: H1299 cells expressing exogenous mutant p53^175; test: Cell cycle analysis and flow cytometry; settings: H1299 bearing mutant p53^175
Description: as §4

Cyclin B2 promoter = test: Luciferase reporter assay pCCAAT-B2LUC in SKBR3; settings: SKBR3, adriamycin 0.5 μg/ml
Description: as §3, §2

[2] = system: p53 Thr18 phosphorylation; test: Immunoblot of IR-induced p53 Thr18 phosphorylation in NB4 cells; settings: As2O3 1 μM 4 h, γ-IR 5Gy
Description: (§5) Western blot analysis and immunoprecipitation assays were carried out as previously described (Louria-Hayon et al.). The antibodies used in this study were: anti-human p53 monoclonal antibodies PAb1801 and D01, anti-phospho-p53 Thr^18 polyclonal antibody (Saito et al.), anti-phospho-p53 Ser^20 polyclonal antibody (Cell Signaling Technology, Beverly, Mass., USA); anti-PML monoclonal antibody (clone PML-97; Sigma Chemical Co., St Louis, Mo., USA), anti-GFP (Roche Applied Science, Mannheim, Germany), HRP-conjugated goat anti-mouse IgG, Envision peroxidase anti-mouse or anti-rabbit (Dako Corp., Glostrup, Denmark). The antibodies anti-p53 goat polyclonal antibody (FL-393, AC), anti-p53 rabbit polyclonal antibody (FL-393, FC) and anti-PML polyclonal rabbit antibody ((H-238) sc-5621) were from Santa Cruz Biotechnology, Santa Cruz, Calif., USA.
The inventors have previously shown that PML facilitates the phosphorylation of wt p53 at Ser^20 by check-point kinase 2 (Chk2; Louria-Hayon et al.) and Thr^18 by CK1 (Alsheich-Bartok et al.). These observations raised the surprising possibility that PML may also facilitate the phosphorylation of mutant p53.

SW480 cells [3] = test: Flow cytometry of live/dead cells by propidium iodide exclusion
Description: (§6) Cells were cultured in the absence or presence of doxycyclin (0.2 μg/ml added every second day) for three days then 25,000 cells were plated (with doxycyclin maintainance in culture for continued shRNA induction) and harvested at selected time points. Cells adherent to the plate were released with trypsin-EDTA and combined with those suspended in the culture supernatant prior to flow cytometric analysis of live cell numbers, as discriminated by propidium iodide exclusion using a cell sorter (FACSCalibur) harnessed to CellQuest software (BD Biosciences; San Jose, Calif., USA).

HT29 cells [4] = test: as above
Description: as §6

PML = test: Western blot of PML knock-down by shRNA
Source text: Cell lines in which PML was inducibly knocked-down were generated by co-infection with a lentivirus (pLVTHM) expressing the short hairpin RNA (shRNA) PML target sequence GACCAACAACATCTTCTGC (shPML1; SEQ ID No: 1) or AGATGCAGCTGTATCCAAG (shPML2; SEQ ID No: 2; Tavalai et al.) and a lentivirus expressing a tetracycline repressor (pLV-Ttrkrab-Red). Control cell lines with shLacZ and relevant wobble shPML control sequences GACCAACAATATATTCTGC (w-shPML1; SEQ ID No: 4) and AGATGCAGCTGTATCCAAG (w-shPML2; SEQ ID No: 5) were also generated under the control of a tetracycline repressor. PMLi to target sequence GAGTCGGCCGACTTCTGGT (SEQ ID No: 3; Bruno et al), referred to subsequently as PML3i was transfected into SKBR3 cells using Lipofectamine™ 2000 (Invitrogen Corporation, Carlsbad, Calif. 92008 USA), according to the manufacturer's instructions.
as §5

HT29 cells [5] = test: MTT metabolic assay; settings: HT29, 3, 4 and 11 days of doxycycline exposure, compared with control w-shPML1
Description: Cells either untreated or treated with doxycyclin (0.2 μg/ml) to knock down PML were plated 4000 per well in a 96 well plate and allowed to recover for 24 h. 3-(4,5-Dimethylthiazolyl-2)-2,5-diphenyltetrazolium bromide (MTT, […] final concentration) was added to the wells and the experiment was terminated after an additional 4 h incubation, by aspiration of the liquid and addition of 200 μl of DMSO. The absorbance was read at 540 nm, relative to a reference wavelength of 630 nm (Mosmann et al.).

PML transcript = test: RT-PCR of PML transcript after shRNA knock-down
Source text: as §1

HT29 cells [6] = test: Cell cycle analysis by BrdUrd incorporation; settings: for relative number of cells cycling through the S-phase: versus parental line
Description: Cells were plated 2×10^6/10 cm dish and allowed to recover 24 h. BRDU was incorporated (20 μM, 4 h), prior to cell harvest with trypsin-EDTA and fixation in 70% methanol, −20° C. overnight. BRDU detection was undertaken subsequent to sequential rehydration in HCl(2N)/Triton-X(0.5%) then incubation in Boric acid (0.1M), anti-DRDU FITC antibody (BD Biosciences; San Jose, Calif., USA) in PBS/BSA(1%)/Triton-X(0.5%). DNA was labeled using propidium iodide 0.5 mg/ml and incorporation was analyzed using the FACs calibur (BD Biosciences; San Jose, Calif., USA)

SW480 cells [7] = test: Colony formation assay; settings: SW840 as printed, doxycycline-induced PML knockdown for 21 d
Description: (§7) Cancer cell lines were plated (700 per well) in 5 cm diameter dishes in the absence or presence of tetracycline (0.2 μg/ml added every second day) for 21 days. At harvest the cells were fixed in ethanol and stained in 0.1% crystal violet.

HT29 cells [8] = test: Colony formation assay; settings: HT29, doxycycline-induced PML knockdown for 21 d
Description: as §7

[9] = HT29, 3 days of doxycyclin induction
[10] = HT29, 8 days of continuous PML knock down

Substance	endogenous cyclin B2 RNA level (cyclin B2 RNA)	endogenous Cdc25C RNA level (Cdc25C RNA)	Cdc25C promoter activity (luciferase) (Cdc25C promoter)	cell cycle profile (p53 null H1299 cells)	G2 [1]	Cyclin B2 promoter activity (luciferase) (Cyclin B2 promoter)	expression of major PML isoforms (PML; HT29, doxycycline 72 h)	expression of major PML isoforms (PML; SW480, doxycycline 72 h)	relative number of cells cycling through the S-phase (HT29 cells [6]; [9])	also measured
PML3i: siRNA to PML target sequence GAGTCGGCCGACTTCTGGT (Bruno et al), transfected with Lipofectamine 2000 (listed as DNA, chemistry not given here)	suppression	suppression	reduced	not disrupted	striking increase	reduced				cell death (SKBR3 cells): without significant cell death; live cell numbers (SKBR3 cells): slightly reduced
arsenic trioxide [As2O3]										IR-induced phosphorylation of p53 on Thr18 [2]: facilitated
shPML1: lentivirus-expressed, doxycycline-inducible short hairpin RNA to PML target sequence GACCAACAACATCTTCTGC							reduced	reduced	comparable	cell death (SW480 cells [3]; SW480, 7 or 8 days of PML down regulation): modest increase; number of live cells (SW480 cells [3]; SW480, 7 or 8 days of doxycyclin exposure): significantly reduced; cell death (HT29 cells [4]; HT29, 7 or 8 days of PML down regulation): modest increase; number of live cells (HT29 cells [4]; HT29, 7 or 8 days of doxycyclin exposure): significantly reduced; rate of metabolism (MTT) (HT29 cells [5]): slightly lower; PML transcript level (PML transcript; HT29, RT-PCR normalized to 18 s): reduction; PML transcript level (PML transcript; SW480, RT-PCR normalized to 18 s): reduction; level of G1 (HT29 cells [6]; [9]): slightly higher; level of G2 (HT29 cells [6]; [9]): lower; BrdUrd incorporation into the S-phase (HT29 cells [6]; [10]): reduced markedly; G1 (HT29 cells [6]; [10]): increases; G2 (HT29 cells [6]; [10]): increases; inhibition of colony formation (SW480 cells [7]): > 70%; inhibition of colony formation (HT29 cells [8]): > 90%
shp53: RNA interference construct to p53, GACTCCAGTGGTAATCTA [reference compound]	suppression	suppression	suppressed	not disrupted	striking increase	suppressed				
w-shPML1: wobble shPML control sequence GACCAACAATATATTCTGC [reference compound]							failed to reduce PML levels	failed to reduce PML levels	comparable	

From patent publication US8586557B2, “Therapy of p53 mutant colon adenocarcinoma, breast cancer and lung cancer” (Peter MacCallum Cancer Institute, priority 2009, dated 2013)
